For one data set, the system named is NIH little mice. The data set is described as follows: Toxicological experiment, single oral dose, 10 days observation (Examples 32-35). The data set is classed as in vivo. As to conditions: for dosage without toxic reaction as multiple of the normal dosage: oral dosage tested relative to normal dose for human beings; for changes in little mice's weight / toxic reaction / deaths of little mice / pathological inspection of each apparatus: oral; for changes in little mice's weight / toxic reaction: ten days; for deaths of little mice / pathological inspection of each apparatus: tenth day. The method, then:
With temperature in the range of 24±1 °C and humidity in the range of 65±5 %,choose 20 NIH little mice which are […] ,healthy and clean, male and female for each half ,their weights are between 20 and 22 gram.. Antisepsis the feed and water, before and in the layoff period of the test, all the mice should be feed under the normal feeding condition.
Dissolve Naringin in 0.5 % Tween80, the concentration is 300mg/ml,this liquor is given to little mice by oral access, the dosage is 0.2ml/20g weight of little mice. After administration ,they are observed for 1,4,8,12 hours, and then once per 12 hours. Observe the deaths of little mice ,and record the changes in little mice's weight as well as other symptoms. In the tenth day, kill little mice by breaking their necks, and take each apparatus for pathological inspection.
With temperature in the range of 25±1 °C and humidity in the range of 75±5 %,choose 20 NIH little mice which are […], healthy and clean, male and female for each half , their weights are between 18.5 and 20.5 gram.. Antisepsis the feed and water, before and in the layoff period of the test, all the mice should be feed under the normal feeding condition.
Dissolve Naringin sodium salt medicine in brine, the concentration is 300mg/ml, this liquor is given to little mice by oral access, the dosage is 0.2ml/20g weight of little mice. After administration ,they are observed for 1,4,8,12 hours, and then once per 12 hours. Observe the deaths of little mice, and record the changes in little mice's weights as well as other symptoms. In the tenth day, kill little mice by breaking their necks, and take each apparatus for pathological inspection.. […]

In a further data set the test system is NIH mice. The data set is described as follows: Antitussive test of Naringin, spraying with concentrated ammonia liquor (Example 28). In kind it is in vivo. The settings on record: for R Value: EDT50 of the treatment / EDT50 of the control x 100%; for EDT50: mice, intra-gastrointestinal, ammonia spray 1 hour after dosing. The text has this: 1.Animals: As the stock animals, totally 130 NIH mice, male, each weighed 18.2~21.7g within ordinary standard. Weigh and number each mice accurately first, then pick out the 120 healthy ones who weighed in range from 18.5~21.0g. Ranked in weigh, they were divided into 8 groups in random with each 15. Set up reference groups of negative and positive, and sample groups of high-dose, mid-dose, low-dose Naringin and sodium Naringinate.
• 1) Blank control group: physiological saline, 0.9% NaCl; • 2) Positive control group: 30 mg dextromethorphan hydrobromide was weighed into a 20ml volumetric flask, and physiological saline was accurately added to the volume to obtain the solution for positive control at concentration of 5mg/ml° • 3) Group of low-dose sample Naringin: Proper amount of Naringin was weighed into a suitable volumetric flask, and physiological saline was added to the volume to obtain the solution at concentration of 0.5mg/ml. • 4) Group of mid-dose sample Naringin: Proper amount of Naringin was weighed into a suitable volumetric flask, and physiological saline was added to the volume to obtain the solution at concentration of 1.5mg/ml. • 5) Group of high-dose sample Naringin: Proper amount of Naringin was weighed into a suitable volumetric flask, and physiological saline was added to the volume to obtain the solution at concentration of 4.5mg/ml. • 6) Group of low-dose sample sodium Naringinate: Proper amount of sodium Naringin was weighed into a suitable volumetric flask, and physiological saline was added to the volume to obtain the solution at concentration of 0.5mg/ml. • 7) Group of mid-dose sample sodium Naringinate: Proper amount of sodium Naringin was weighed into a suitable volumetric flask, and physiological saline was added to the volume to obtain the solution at concentration of 1.5mg/ml. • 8) Group of high-dose sample sodium Naringinate: Proper amount of sodium Naringin was weighed into a suitable volumetric flask, and physiological saline was added to the volume to obtain the solution at concentration of4.5mg/ml.
One hour after intra-gastrointestinal administering for the mice, spray with concentrated ammonia liquor for certain intervals. Immediately the spraying was over, put away the mice outside and observe the tussive action. Mark down the times for which they coughed within 1 minute. Only when they coughed, which was characteristic of compression of abdomen or chest with their mouths open, and making coughing noise, for more than 3 times within a minute, tussive action could be admitted.
Calculate the median effective dose(EDT50) with sequential trials. Work out the amount of R with the formula below. If R is greater than 130%, it means the drug will be effective on antitussive action. If R is greater than 150%, it means the drug will be remarkably effective on antitussive action. The formula is shown as below: R =(EDT50 of the treatmnet)/(EDT50 of the control)× 100% [formula] EDT50=log-1c/n(n for amount of animals, c for summation of rx, r for amount of animals in each group, x for logarithm of the dose (time for spraying) )

Setting [1] is: 0.2 ml/20g of 0.5 mg/ml, listed as sodium naringinate.
Where [2] appears, read: 0.2 ml/20g of 1.5 mg/ml, listed as sodium naringinate.
Where [3] appears, read: 0.2 ml/20g of 4.5 mg/ml, listed as sodium naringinate.

We go through 4 compounds from patent EP1591123A1, “USES OF NARINGENIN, NARINGIN AND SALTS THEREOF AS EXPECTORANTS IN THE TREATMENT OF COUGH, AND COMPOSITIONS THEREOF” (Su, Wei-wei, priority 2003, dated 2004).

“Also recorded” adds a separate entry of the source. Structures can show the parent of a compound that is named as a salt.

With `O=C1CC(c2ccc(O)cc2)Oc2cc(O)cc(O)c21` (stereo not drawn) [Naringenin, 4', 5, 7 -trihydroxyflavanone], the “dosage without toxic reaction as multiple of the normal dosage” value (shortened to “dosage without toxic reaction”) in the data set on NIH little mice was 460. Besides, in the data set on NIH little mice (6.0g/kg), the “changes in little mice's weight” value was “weights of little mice are not found lightening”, the toxic reaction result is on record as “toxic reaction can't be found; also recorded: hasn't toxic reaction”, the “deaths of little mice” value was “all little mice are still alive” and the “pathological inspection of each apparatus” value (shortened to “pathological inspection”) was “pathological changes have not been found”.

For the compound `C[C@@H]1O[C@@H](O[C@H]2[C@H](Oc3cc(O)c4c(c3)O[C@H](c3ccc(O)cc3)CC4=O)O[C@H](CO)[C@@H](O)[C@@H]2O)[C@H](O)[C@H](O)[C@H]1O` [Naringin, 4', 5', 7-trihydroxyflavanone-7-rhamnoneglucoside], in the data set with NIH mice (0.2 ml/20g of 0.5 mg/ml), the “Effect of relieving cough” value is recorded as “effective (If R is greater than 130%, it means the drug will be effective on antitussive action)”; the “R Value” worked out at 139.21%; the EDT50 was found to be 56.41 s. Moreover, in the data set on NIH mice (0.2 ml/20g of 1.5 mg/ml), the “Effect of relieving cough” value is on record as “remarkably effective (If R is greater than 150%, it means the drug will be remarkably effective on antitussive action)”; the “R Value” is recorded as 151.36%; the EDT50 was 61.33 s. In the data set on NIH mice (0.2 ml/20g of 4.5 mg/ml), the “Effect of relieving cough” value is recorded as “remarkably effective (If R is greater than 150%, it means the drug will be remarkably effective on antitussive action)”; the “R Value” is reported as 161.72%; the EDT50 came out at 65.53 s. Also, the “resistance time against cough” value with NIH mice (compared with dextromethorphan hydrobromide) is reported as “remarkably longer”. Besides, in the data set on NIH little mice, the “dosage without toxic reaction” value worked out at 230. Besides, in the data set on NIH little mice (3.0g/kg), the “changes in little mice's weight” value is “weights of little mice are not found lightening”, the toxic reaction result is reported as “toxic reaction can't be found; also recorded: haven't toxic reaction”, the “deaths of little mice” value is “all little mice are still alive” and the “pathological inspection” value is “pathological changes have not been found”.

Regarding `O=C1C[C@@H](c2ccc(O)cc2)Oc2cc(O)cc(O)c21` [sodium salt of Naringenin], the “dosage without toxic reaction” value in the data set with NIH little mice is on record as 460. In the data set on NIH little mice (6.0g/kg), the “changes in little mice's weight” value is listed as “weights of little mice are not found lightening”, the toxic reaction result is given as “toxic reaction can't be found”, the “deaths of little mice” value is on record as “all the little mice are still alive” and the “pathological inspection” value is recorded as “pathological changes have not been found”.

On to `C[C@@H]1O[C@@H](O[C@H]2[C@H](Oc3cc(O)c4c(c3)O[C@H](c3ccc(O)cc3)CC4=O)O[C@H](CO)[C@@H](O)[C@@H]2O)[C@H](O)[C@H](O)[C@H]1O` [sodium salt of Naringin], for which the “Effect of relieving cough” value was “effective (If R is greater than 130%, it means the drug will be effective on antitussive action)” with NIH mice (0.2 ml/20g of 0.5 mg/ml); “remarkably effective (If R is greater than 150%, it means the drug will be remarkably effective on antitussive action)” in the data set with NIH mice (0.2 ml/20g of 1.5 mg/ml); “remarkably effective (If R is greater than 150%, it means the drug will be remarkably effective on antitussive action)” with NIH mice (0.2 ml/20g of 4.5 mg/ml). Also, the “R Value” turned out to be 142.35% in the data set with NIH mice (setting [1]), 155.84% in the data set with NIH mice (setting [2]) and 163.94% with NIH mice (setting [3]). Moreover, the EDT50 in the data set on NIH mice (setting [1]) was 57.68 s; in the data set with NIH mice (setting [2]), 63.15 s; in the data set with NIH mice (setting [3]), 66.43 s. The “dosage without toxic reaction” value in the data set with NIH little mice came to 230. The “changes in little mice's weight” value with NIH little mice (3.0g/kg) is “weights of little mice are not found lightening”. Further, the toxic reaction entry in the data set with NIH little mice (3.0g/kg, listed as Naringin sodium salt) is listed as “toxic reaction can't be found”. Further, in the data set on NIH little mice (3.0g/kg), the “deaths of little mice” value is given as “all little mice are still alive”. The “pathological inspection” value with NIH little mice (3.0g/kg) is reported as “pathological changes have not been found”.
